Assay results taken from US20120196895A1, “NOVEL FORMS OF EPERISONE” (Bionevia Pharmaceuticals, Inc., priority 2009, published 2012).
Where a name gives a salt, the structure may show the parent alone.

Experiment: Solubility determinations of crystalline forms of racemic eperisone in water
Assay type: physicochemical
Conditions: for Solubility: HPLC-grade water, slurry on rotating wheel 46.5 hours at ambient temperature (about 19° C.), filtrate dried and weighed; for Relative solubility among the forms: ranking of the Table 10 solubilities in water
Description: The solubilities of the crystalline forms of racemic eperisone were determined as follows. Each experiment was conducted in a one-dram vial by adding weighed amounts of solid salt in portions to a weighed amount of HPLC-grade water until a slurry was obtained. In the case of the mesylate salt, a slurry was not obtained; solid addition was stopped while a solution was still present. Each vial was capped and placed on a rotating wheel for 46.5 hours at ambient temperature. Each vial was removed from the wheel. The ambient temperature at the time of removal was about 19° C. The contents of each vial were vacuum filtered through Whatman Grade 1 filter paper. Solids adhering to the inside of the vial were not recovered. Each filtrate was weighed, dried under diaphragm pump pressure over phosphorus pentoxide, and the resulting solid residue was weighed. Each filter cake was allowed to dry in the air overnight and was weighed.

| Solubility [mg/mL] | Relative solubility among the forms (listed as racemic eperisone fumarate) | Relative solubility among the forms (listed as racemic eperisone mesylate) | Compound |
| --- | --- | --- | --- |
| 16.8 | least soluble | – | CCc1ccc(C(=O)C(C)CN2CCCCC2)cc1 (racemic) [Fumarate, (2RS)-1-(4-ethylphenyl)-2-methyl-3-piperidin-1-yl-propan-1-one] |
| 210.7 | – | – | CCc1ccc(C(=O)C(C)CN2CCCCC2)cc1 (racemic) [Hydrochloride, (2RS)-1-(4-ethylphenyl)-2-methyl-3-piperidin-1-yl-propan-1-one, reference compound] |
| 20.7 | – | – | CCc1ccc(C(=O)C(C)CN2CCCCC2)cc1 (racemic) [Maleate, (2RS)-1-(4-ethylphenyl)-2-methyl-3-piperidin-1-yl-propan-1-one] |
| >392.2 | – | most soluble | CCc1ccc(C(=O)C(C)CN2CCCCC2)cc1 (racemic) [Mesylate, (2RS)-1-(4-ethylphenyl)-2-methyl-3-piperidin-1-yl-propan-1-one] |
| 114.7 | – | – | CCc1ccc(C(=O)C(C)CN2CCCCC2)cc1 (racemic) [Succinate, (2RS)-1-(4-ethylphenyl)-2-methyl-3-piperidin-1-yl-propan-1-one] |
